From PMC7083800, “Production and characterization of Aspergillus niger GH29 family α-fucosidase and production of a novel non-reducing 1-fucosyllactose” (Glycoconjugate Journal, 2019)

Tested on: T1, A. niger GH29 α-fucosidase (long version, pPFucA-L)
T1 construct: gene FucA; C-terminal His-tag kept; codon-optimized, secreted from Pichia pastoris
Assay: pNP release, absorbance at […] nm
Assay type: biochemical, Aspergillus niger
Conditions: 50 mM Na-acetate buffer assay, pH 3.6, 45 °C; 0.05-3 mM substrate; read-out: apparent Km

Question: `C[C@@H]1O[C@@H](Oc2ccc([N+](=O)[O-])cc2)[C@@H](O)[C@H](O)[C@@H]1O` [pNP-fucose, 4-Nitrophenyl α-L-fucopyranoside] was tested. Which Km did it give?
Answer: 390 µM
